Measurements as given in the supplement of paper PMC10784567.
± gives the standard deviation of the averaged measurements.

These test systems were tested with C=C1C[C@H]2C=Nc3cc(OCCCCCOc4cc5c(cc4OC)C(=O)N4CC(=C)C[C@H]4C=N5)c(OC)cc3C(=O)N2C1 [SG2057] (assay: absolute IC50 (cell viability, CellTiter-Glo); higher = less potent). Conditions: treatment time: 3 days.
Procedure: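 Large cancer cell line panel screens in 384-well plates. Cells were treated for 3 days with a 9-point dose titration of the free PBD dimer SG2057; viability was read with CellTiter-Glo. Absolute IC50 came from a four-parameter Hill fit normalised to the median of vehicle (DMSO) wells. Several independent screens (projects) per cell line are averaged; values in µM, lowest-dose floor about 1.524e-5 µM.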

Going from 4T1 Luciferase to 51BLim 10, the “absolute IC50” value falls from 3.01 nM to 0.371 nM (8.1-fold).

Compared with 59M, 66c14 is 2-fold lower in “absolute IC50” value: 1.47 nM for the first, 0.725 nM for the second.

Going from 105KC (DODx) to 143B, the “absolute IC50” value falls from 3.56 nM to 0.191 nM (19-fold).

501A and 537 MEL are within error of each other in “absolute IC50” value: 0.378 ± 0.25 nM for the first, 1.23 ± 0.94 nM for the second.

769-P and 786-O are within error of each other in “absolute IC50” value: 4.38 ± 4.6 nM for the first, 1.24 ± 1.8 nM for the second.

Compared with 1321N1, 1624-16997 (Tumor A) is 29-fold higher in “absolute IC50” value: 0.0321 nM for the first, 0.926 nM for the second.

Compared with 1624-16997 (Tumor B), 1624-16997 (Tumor C) is 1.7-fold higher in “absolute IC50” value: 0.909 nM for the first, 1.55 nM for the second.

1624-17082 (Tumor A) and 1624-17091 (Tumor A) are within 1.5-fold of each other in “absolute IC50” value: 0.887 nM for the first, 0.849 nM for the second.

Compared with 1624-17091 (Tumor B), 1624-17095 (Tumor A) is 1.6-fold lower in “absolute IC50” value: 2.12 nM for the first, 1.31 nM for the second.

Compared with 1624-17095 (Tumor B), 1624-17095 (Tumor C) is 7.1-fold lower in “absolute IC50” value: 5.51 nM for the first, 0.777 nM for the second.

1624-17147 (Tumor A) and 1624-17147 (Tumor B) are within 1.5-fold of each other in “absolute IC50” value: 1.27 nM for the first, 1.55 nM for the second.

4498-1636 Mel-nBR1 and 4498-14745 Mel-BR3 are within 1.5-fold of each other in “absolute IC50” value: 0.565 nM for the first, 0.39 nM for the second.

Compared with 4498-16820 Mel-BR1, 4498-16820 Mel-BR1 X1 is 1.7-fold higher in “absolute IC50” value: 0.55 nM for the first, 0.911 nM for the second.

8305C and 8505C are within 1.5-fold of each other in “absolute IC50” value: 0.706 nM for the first, 0.595 nM for the second.

Compared with 23132/87, A20 is lower in “absolute IC50” value: 1 ± 1.2 nM for the first, under 0.0152 nM for the second.

A172 and A549 are within error of each other in “absolute IC50” value: 0.554 nM for the first, 0.926 ± 1.4 nM for the second.

First: A-427
Second: A-498
The “absolute IC50” value of the first is 3-fold lower: 0.831 nM for the first, 2.47 nM for the second.

Going from A-673 to AB22, the “absolute IC50” value rises from 0.0661 nM to 4.95 nM (75-fold).

ABC-1 and AE17 are within error of each other in “absolute IC50” value: 0.365 ± 0.24 nM for the first, 0.259 nM for the second.

Compared with AM-38, AMO-1 is 11-fold lower in “absolute IC50” value: 4.53 nM for the first, 0.409 ± 0.15 nM for the second.

First: AN3 CA
Second: ASH-3
The “absolute IC50” value of the first is 1.6-fold higher: 1.45 nM for the first, 0.925 nM for the second.

ATRFLOX and AU565 are within error of each other in “absolute IC50” value: 0.211 ± 0.41 nM for the first, 0.835 ± 0.35 nM for the second.

AsPC-1 and B16-F1 are within error of each other in “absolute IC50” value: 5.12 ± 5.9 nM for the first, 0.595 nM for the second.

B16-F10 and B16-F10 Luciferase are within 1.5-fold of each other in “absolute IC50” value: 1.01 nM for the first, 0.894 nM for the second.

First: B-CPAP
Second: BA/F3
The “absolute IC50” value of the first is 3-fold higher: 0.345 nM for the first, 0.114 nM for the second.

Going from BE(2)-M17 to BEN, the “absolute IC50” value rises from 0.494 nM to 43.1 nM (87-fold).

Going from BFTC-909 to BHY, the “absolute IC50” value falls from 0.681 nM to 0.183 nM (3.7-fold).

Going from BICR 10 to BICR 22, the “absolute IC50” value rises from 0.421 nM to 0.854 nM (2-fold).

First: BOKU
Second: BT-20
The “absolute IC50” value of the first is 6.7-fold lower: 0.258 nM for the first, 1.72 ± 0.74 nM for the second.

BT-474 and BT-B are within error of each other in “absolute IC50” value: 4.09 ± 3.7 nM for the first, 0.864 nM for the second.

First: C2BBe1
Second: C32
The “absolute IC50” value of the first is 24-fold higher: 7.31 ± 3.8 nM for the first, 0.31 ± 0.098 nM for the second.

Compared with C32TG, C170 is 15-fold higher in “absolute IC50” value: 0.2 nM for the first, 2.97 ± 1.1 nM for the second.

C-33 A and CA46 are within error of each other in “absolute IC50” value: 0.0527 nM for the first, 0.354 ± 0.53 nM for the second.

First: CAL 27
Second: CAL-12T
The “absolute IC50” value of the first is 22-fold lower: 0.164 nM for the first, 3.57 ± 3.2 nM for the second.

CAL-85-1 and CAL-120 are within error of each other in “absolute IC50” value: 1.67 ± 0.48 nM for the first, 2.01 ± 2.9 nM for the second.

Compared with CAMA-1, CCF-STTG1 is 1.7-fold lower in “absolute IC50” value: 5.02 nM for the first, 2.87 nM for the second.

CFPAC-1 and CGTH-W-1 are within error of each other in “absolute IC50” value: 0.526 ± 0.55 nM for the first, 0.189 nM for the second.

First: CHL-1
Second: CHP-212
The “absolute IC50” value of the first is 13-fold higher: 1.39 ± 1.1 nM for the first, 0.105 nM for the second.

Going from CI-1 to CL-11, the “absolute IC50” value rises from 0.104 ± 0.014 nM to 21.7 nM (210-fold).

CL-34 and COLO 201 are within error of each other in “absolute IC50” value: 1.69 ± 3.5 nM for the first, 0.782 nM for the second.

COLO 205 and COLO 206F are within error of each other in “absolute IC50” value: 1.52 ± 0.48 nM for the first, 2.54 ± 2.5 nM for the second.

Going from COLO 320 to COLO 320DM, the “absolute IC50” value rises from 12 nM to 20.2 nM (1.7-fold).

COLO 320HSR and COLO 678 are within error of each other in “absolute IC50” value: 1.9 nM for the first, 5.65 ± 4.5 nM for the second.

COLO 679 and COLO 680N are within error of each other in “absolute IC50” value: 0.435 ± 0.34 nM for the first, 0.602 nM for the second.

Going from COLO 684 to COLO 685, the “absolute IC50” value falls from 5 nM to 1.32 nM (3.8-fold).

COLO 704 and COLO 783 are within error of each other in “absolute IC50” value: 3.36 ± 2.6 nM for the first, 3.44 nM for the second.

Going from COLO 792 to COLO 794, the “absolute IC50” value falls from 3.47 nM to 0.0985 ± 0.063 nM (35-fold).

COLO 818 and COLO 824 are within error of each other in “absolute IC50” value: 3.37 ± 4.1 nM for the first, 0.192 nM for the second.

COLO 829 and COLO 853 are within error of each other in “absolute IC50” value: 0.32 ± 0.18 nM for the first, 1 ± 0.73 nM for the second.

COLO 858 and COR-L26 are within error of each other in “absolute IC50” value: 1.72 ± 1.4 nM for the first, 0.211 ± 0.31 nM for the second.

COR-L47 and COR-L88 are within 1.5-fold of each other in “absolute IC50” value: 4.01 nM for the first, 5.79 nM for the second.

COR-L279 and COV318 are within error of each other in “absolute IC50” value: 0.082 nM for the first, 5.85 ± 6.6 nM for the second.

Going from COV362.4 to COV413A, the “absolute IC50” value falls from 4.61 ± 1.7 nM to 2.34 nM (2-fold).

COV413B and COV434 are within error of each other in “absolute IC50” value: 2.73 ± 3.9 nM for the first, 0.188 ± 0.19 nM for the second.

COV504 and CT26.WT are within error of each other in “absolute IC50” value: 3.76 ± 4 nM for the first, 5.3 nM for the second.

CX-1 and Ca Ski are within error of each other in “absolute IC50” value: 1.82 ± 2 nM for the first, 0.254 nM for the second.

Compared with CaR-1, Caco-2 is 9.7-fold higher in “absolute IC50” value: 0.535 ± 0.21 nM for the first, 5.17 ± 0.99 nM for the second.

Caki-1 and Caki-2 are within error of each other in “absolute IC50” value: 0.052 nM for the first, 10.2 ± 19 nM for the second.

Compared with Calu-3, Calu-6 is 4.4-fold higher in “absolute IC50” value: 1.55 ± 0.058 nM for the first, 6.78 nM for the second.

Capan-2 and ChaGo-K-1 are within error of each other in “absolute IC50” value: 4.33 ± 0.82 nM for the first, 3.31 ± 1.5 nM for the second.

Compared with Clone M-3 Cloudman S91 melanoma, CoCM-1 is 67-fold higher in “absolute IC50” value: 0.202 nM for the first, 13.5 nM for the second.

First: DAN-G
Second: DEOC-1
The “absolute IC50” value of the first is 27-fold lower: 0.694 ± 0.32 nM for the first, 18.9 nM for the second.

DLD-1 and DMS 273 are within error of each other in “absolute IC50” value: 1.01 ± 0.81 nM for the first, 1.38 nM for the second.

DOV 13 and Daudi are within error of each other in “absolute IC50” value: 0.241 ± 0.31 nM for the first, 0.155 ± 0.24 nM for the second.

Detroit 562 and EB-3 are within error of each other in “absolute IC50” value: 1.79 ± 2.6 nM for the first, 0.637 ± 0.85 nM for the second.

EBC-1 and ECC-1 are within 1.5-fold of each other in “absolute IC50” value: 0.876 nM for the first, 1.04 nM for the second.

EFE-184 and EFM-192A are within error of each other in “absolute IC50” value: 5.81 ± 7.5 nM for the first, 1.2 nM for the second.

First: EL4
Second: EMT6 Luciferase
The “absolute IC50” value of the first is 6.5-fold lower: 0.0929 nM for the first, 0.606 nM for the second.

EPLC-272H was tested, and the “absolute IC50” value was 0.205 nM.
